# Source: ChEMBL document CHEMBL4387773, “Identification of potent, selective and orally bioavailable phenyl ((R)-3-phenylpyrrolidin-3-yl)sulfone analogues as RORγt inverse agonists” (Bioorg Med Chem Lett, 2019)
# Assays:
# [1] = target: T1, Nuclear receptor ROR-alpha (Homo sapiens, UniProt P35398); assay: Inverse agonist activity at human Gal4-fused RORalpha LBD (272 to 556 residues) expressed in human Jurkat cells measured after 18 hrs by steady-glo luciferase reporter gene assay; format: cell-based
# T1 sequence (P35398 whole entry): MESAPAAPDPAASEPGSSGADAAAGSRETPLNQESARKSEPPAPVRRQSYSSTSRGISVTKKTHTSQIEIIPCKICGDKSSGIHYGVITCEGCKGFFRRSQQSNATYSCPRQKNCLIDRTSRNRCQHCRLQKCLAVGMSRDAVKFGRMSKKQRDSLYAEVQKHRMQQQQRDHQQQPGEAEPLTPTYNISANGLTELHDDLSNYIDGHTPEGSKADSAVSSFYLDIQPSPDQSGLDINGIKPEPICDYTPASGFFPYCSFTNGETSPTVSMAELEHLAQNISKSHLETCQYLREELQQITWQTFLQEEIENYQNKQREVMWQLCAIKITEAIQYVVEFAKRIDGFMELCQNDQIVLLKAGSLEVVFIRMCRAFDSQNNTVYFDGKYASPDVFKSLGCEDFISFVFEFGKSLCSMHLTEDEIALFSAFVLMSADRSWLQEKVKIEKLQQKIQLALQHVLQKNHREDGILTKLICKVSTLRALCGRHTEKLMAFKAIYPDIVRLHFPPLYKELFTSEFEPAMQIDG
# [2] = target: T2, Nuclear receptor ROR-beta (Homo sapiens, UniProt Q92753); assay: Inverse agonist activity at human Gal4-fused RORbeta LBD (200 to 559 residues) expressed in human Jurkat cells measured after 18 hrs by steady-glo luciferase reporter gene assay; format: cell-based
# T2 sequence (Q92753 whole entry): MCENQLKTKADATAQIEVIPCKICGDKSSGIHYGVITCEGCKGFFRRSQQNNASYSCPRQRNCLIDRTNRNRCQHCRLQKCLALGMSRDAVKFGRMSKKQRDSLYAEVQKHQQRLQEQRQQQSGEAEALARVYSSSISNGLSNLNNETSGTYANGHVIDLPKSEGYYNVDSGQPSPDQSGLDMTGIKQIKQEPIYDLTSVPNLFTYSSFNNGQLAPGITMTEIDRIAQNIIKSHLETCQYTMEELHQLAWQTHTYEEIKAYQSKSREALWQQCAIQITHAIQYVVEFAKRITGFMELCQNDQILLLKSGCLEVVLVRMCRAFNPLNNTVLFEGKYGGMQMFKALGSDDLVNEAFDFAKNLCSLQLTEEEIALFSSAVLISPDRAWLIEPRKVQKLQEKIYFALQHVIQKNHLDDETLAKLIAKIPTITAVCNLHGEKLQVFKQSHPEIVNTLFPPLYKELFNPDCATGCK
# [3] = Stability in human liver microsomes assessed as parent compound remaining after 10 mins; format: ADME, Microsome; conditions: liver microsomes, read-out: Stability
# [4] = Permeability in human Caco2 cells; format: ADME, cell-based; conditions: Caco-2, read-out: permeability
# [5] = Half life in mouse liver microsomes; format: ADME, Microsome
# [6] = target: Cytochrome P450 3A4 (Homo sapiens, UniProt P08684); assay: Inhibition of CYP3A4 (unknown origin); format: ADME
# Cytochrome P450 3A4, sequence (P08684 whole entry): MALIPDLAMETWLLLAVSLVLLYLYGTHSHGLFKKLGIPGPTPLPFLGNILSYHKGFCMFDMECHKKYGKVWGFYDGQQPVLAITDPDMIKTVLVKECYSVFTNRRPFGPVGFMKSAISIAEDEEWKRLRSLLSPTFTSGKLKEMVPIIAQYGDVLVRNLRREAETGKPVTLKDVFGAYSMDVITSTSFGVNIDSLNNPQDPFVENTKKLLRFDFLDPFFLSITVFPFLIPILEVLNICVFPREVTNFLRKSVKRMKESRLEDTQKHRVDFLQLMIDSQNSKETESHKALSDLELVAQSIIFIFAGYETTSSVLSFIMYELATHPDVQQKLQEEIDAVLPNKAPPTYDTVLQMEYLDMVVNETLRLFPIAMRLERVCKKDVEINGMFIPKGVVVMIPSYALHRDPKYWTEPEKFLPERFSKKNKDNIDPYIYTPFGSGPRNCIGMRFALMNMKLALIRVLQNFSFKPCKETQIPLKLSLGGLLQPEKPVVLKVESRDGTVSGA
# [7] = Stability in mouse liver microsomes assessed as parent compound remaining after 10 mins; format: ADME, Microsome; conditions: liver microsomes, read-out: Stability
# [8] = target: Cytochrome P450 2C9 (Homo sapiens, UniProt P11712); assay: Inhibition of CYP2C9 (unknown origin); format: ADME
# Cytochrome P450 2C9, sequence (P11712 whole entry): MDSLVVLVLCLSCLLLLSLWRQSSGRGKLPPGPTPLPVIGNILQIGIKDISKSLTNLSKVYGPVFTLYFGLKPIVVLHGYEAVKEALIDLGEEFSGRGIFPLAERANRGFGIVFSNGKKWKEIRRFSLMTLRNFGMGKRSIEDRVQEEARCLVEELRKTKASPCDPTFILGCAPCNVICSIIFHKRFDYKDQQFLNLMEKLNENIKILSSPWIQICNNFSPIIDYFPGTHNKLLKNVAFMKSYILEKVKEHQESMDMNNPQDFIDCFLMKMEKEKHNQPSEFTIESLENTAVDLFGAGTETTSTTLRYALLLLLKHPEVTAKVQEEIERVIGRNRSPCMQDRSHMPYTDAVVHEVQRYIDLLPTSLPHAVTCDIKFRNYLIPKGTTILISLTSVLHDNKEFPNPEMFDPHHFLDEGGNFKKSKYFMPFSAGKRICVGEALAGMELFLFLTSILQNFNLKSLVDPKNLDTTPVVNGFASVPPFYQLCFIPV
# [9] = target: T3, Cytochrome P450 1A2 (Homo sapiens, UniProt P05177); assay: Inhibition of CYP1A2 (unknown origin); format: ADME
# T3 sequence (P05177 whole entry): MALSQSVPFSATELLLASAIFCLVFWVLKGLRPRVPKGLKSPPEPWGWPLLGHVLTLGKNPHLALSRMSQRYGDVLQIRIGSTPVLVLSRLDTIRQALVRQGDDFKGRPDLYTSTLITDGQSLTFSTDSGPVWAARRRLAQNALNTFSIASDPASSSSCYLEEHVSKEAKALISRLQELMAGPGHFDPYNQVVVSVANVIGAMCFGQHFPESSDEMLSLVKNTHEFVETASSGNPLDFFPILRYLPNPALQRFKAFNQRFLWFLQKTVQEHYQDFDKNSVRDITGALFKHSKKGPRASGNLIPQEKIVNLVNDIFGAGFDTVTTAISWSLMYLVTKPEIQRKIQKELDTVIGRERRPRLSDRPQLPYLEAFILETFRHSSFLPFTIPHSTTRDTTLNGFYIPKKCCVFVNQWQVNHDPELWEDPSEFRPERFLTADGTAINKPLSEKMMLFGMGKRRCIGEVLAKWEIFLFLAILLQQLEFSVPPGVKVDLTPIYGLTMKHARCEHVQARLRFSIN
# [10] = Half life in rat liver microsomes; format: ADME, Microsome
# [11] = target: T4, Cytochrome P450 2B6 (Homo sapiens, UniProt P20813); assay: Inhibition of CYP2B6 (unknown origin); format: ADME
# T4 sequence (P20813 whole entry): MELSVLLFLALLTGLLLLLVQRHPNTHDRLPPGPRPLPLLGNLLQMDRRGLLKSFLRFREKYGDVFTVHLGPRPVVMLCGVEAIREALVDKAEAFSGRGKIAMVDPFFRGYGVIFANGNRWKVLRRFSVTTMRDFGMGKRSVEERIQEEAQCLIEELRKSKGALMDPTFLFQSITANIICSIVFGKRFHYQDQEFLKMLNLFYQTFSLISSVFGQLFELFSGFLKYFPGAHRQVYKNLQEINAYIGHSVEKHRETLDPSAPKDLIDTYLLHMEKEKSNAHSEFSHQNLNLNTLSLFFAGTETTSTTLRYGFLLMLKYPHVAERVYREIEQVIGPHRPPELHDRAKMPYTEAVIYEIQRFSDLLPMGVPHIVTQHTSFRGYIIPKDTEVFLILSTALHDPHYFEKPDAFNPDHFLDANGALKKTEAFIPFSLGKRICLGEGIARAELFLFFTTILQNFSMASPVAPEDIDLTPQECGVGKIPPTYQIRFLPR
# [12] = target: Cytochrome P450 2D6 (Homo sapiens, UniProt P10635); assay: Inhibition of CYP2D6 (unknown origin); format: ADME
# Cytochrome P450 2D6, sequence (P10635 whole entry): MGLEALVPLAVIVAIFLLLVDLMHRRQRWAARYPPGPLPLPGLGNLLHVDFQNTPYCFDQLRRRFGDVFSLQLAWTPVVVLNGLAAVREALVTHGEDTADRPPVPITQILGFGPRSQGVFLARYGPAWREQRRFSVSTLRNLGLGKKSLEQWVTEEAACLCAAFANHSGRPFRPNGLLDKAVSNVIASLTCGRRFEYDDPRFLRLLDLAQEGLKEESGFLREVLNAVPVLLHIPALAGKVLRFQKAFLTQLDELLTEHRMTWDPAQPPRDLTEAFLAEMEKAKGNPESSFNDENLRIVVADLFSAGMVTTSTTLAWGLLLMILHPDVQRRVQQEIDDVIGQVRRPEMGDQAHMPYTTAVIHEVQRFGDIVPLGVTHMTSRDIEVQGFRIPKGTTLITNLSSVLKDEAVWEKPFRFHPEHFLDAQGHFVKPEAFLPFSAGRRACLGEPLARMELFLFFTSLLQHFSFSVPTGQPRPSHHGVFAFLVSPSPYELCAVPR
# [13] = target: T5, Nuclear receptor subfamily 1 group I member 2 (Homo sapiens, UniProt O75469); assay: Transactivation of PXR (unknown origin) expressed in human HepG2 cells; format: cell-based
# T5 sequence (O75469 whole entry): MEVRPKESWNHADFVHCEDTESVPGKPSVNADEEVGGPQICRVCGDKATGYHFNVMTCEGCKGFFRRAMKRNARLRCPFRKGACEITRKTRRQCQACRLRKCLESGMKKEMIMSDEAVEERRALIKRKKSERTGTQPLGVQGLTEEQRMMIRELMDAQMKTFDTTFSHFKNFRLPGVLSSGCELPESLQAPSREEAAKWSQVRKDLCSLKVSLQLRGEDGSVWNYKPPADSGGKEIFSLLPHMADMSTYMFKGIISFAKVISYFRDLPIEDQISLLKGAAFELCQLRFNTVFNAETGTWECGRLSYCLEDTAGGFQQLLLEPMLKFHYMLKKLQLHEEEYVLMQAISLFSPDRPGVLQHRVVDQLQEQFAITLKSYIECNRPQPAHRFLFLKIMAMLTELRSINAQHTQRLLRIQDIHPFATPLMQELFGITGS
# [14] = AUC in Balb/c mouse at 10 mg/kg, po; format: ADME, organism-based; conditions: in vivo
Compound,EC50 [1],EC50 [2],remaining at 10 min [3],Papp [4],half-life [5],IC50 [6],remaining at 10 min [7],IC50 [8],IC50 [9],half-life [10],IC50 [11],IC50 [12],EC50 [13],AUC [14]
O=C(O)C12CCC(C(=O)N3CC[C@](c4ccc(C(F)(C(F)(F)F)C(F)(F)F)cc4)(S(=O)(=O)c4ccc(F)cc4)C3)(CC1)CC2,> 40 µM,> 40 µM,100%,150 nm/s,> 2 h,> 10 µM,73%,> 10 µM,> 10 µM,> 2 h,> 10 µM,> 10 µM,> 50 µM,24 µM·h
CC[C@]1(C(=O)N2CC[C@](c3ccc(C(F)(C(F)(F)F)C(F)(F)F)cc3)(S(=O)(=O)c3ccc(F)cc3)C2)CC[C@H](C(=O)O)CC1,> 40 µM,> 40 µM,89%,153 nm/s,> 2 h,> 10 µM,83%,> 10 µM,> 10 µM,> 2 h,> 10 µM,> 10 µM,> 50 µM,16.6 µM·h
